How the values were obtained:
[1] = system: rabbit serum obtained by immunizing a rabbit with the SARS-CoV strain Frankfurt 1; assay type: binding; set-up: Binding of a rabbit serum to linear peptides / Binding of a rabbit serum to looped peptides / Rabbit serum linear peptides / Rabbit serum looped peptides / Binding of a rabbit serum to linear peptides of protein N of SARS-CoV Urbani (Rabbit serum linear peptides) / Binding of a rabbit serum to looped/cyclic peptides of protein N of SARS-CoV Urbani (Rabbit serum looped peptides): unit not given here
[2] = system: antibodies in sera from SARS patients (sera 1a, 1b, 2, 6, 37, 62, London, SARS-yellow, SARS-green); assay type: binding, human; set-up: Binding of serum 6 to linear peptides of protein X1 of SARS-CoV Urbani / Binding of serum 37 to linear peptides of protein X1 of SARS-CoV Urbani / Binding of serum 6 to looped/cyclic peptide (PEPSCAN-ELISA) / Binding of serum 37 to looped/cyclic peptide (PEPSCAN-ELISA) / Binding of serum 37 to looped/cyclic peptides of protein X1 of SARS-CoV Urbani / Binding of serum 6 to linear peptides of protein X2 / Binding of serum 37 to linear peptides of protein X2 / Binding of serum 37 to looped/cyclic peptides of protein X2 of SARS-CoV Urbani / Binding of serum 6 to linear peptides of protein M of SARS-CoV Urbani / Binding of serum 37 to linear peptides of protein M of SARS-CoV Urbani / Binding of serum 6 to looped/cyclic peptides of protein M of SARS-CoV Urbani / Binding of serum 37 to looped/cyclic peptides of protein M of SARS-CoV Urbani / Binding of serum 6 to linear peptides of protein X3 of SARS-CoV Urbani / Binding of serum 37 to linear peptides of protein X3 of SARS-CoV Urbani / Binding of serum 37 to looped/cyclic peptides of protein X3 of SARS-CoV Urbani / Binding of serum 6 to linear peptides of protein X4 of SARS-CoV Urbani / Binding of serum 37 to linear peptides of protein X4 of SARS-CoV Urbani / Binding of serum 37 to looped/cyclic peptides of protein X4 of SARS-CoV Urbani / Binding of serum 6 to linear peptides of protein X5 of SARS-CoV Urbani / Binding of serum 37 to linear peptides of protein X5 of SARS-CoV Urbani / Binding of serum 37 to looped/cyclic peptides of protein X5 of SARS-CoV Urbani / Binding of serum 6 to linear peptides of protein N of SARS-CoV Urbani / Binding of serum 37 to linear peptides of protein N of SARS-CoV Urbani / Binding of serum 6 to linear peptide (PEPSCAN-ELISA) / Binding of serum 1a to looped/cyclic peptides of protein N of SARS-CoV Urbani / Binding of serum 1b to looped/cyclic peptides of protein N of SARS-CoV Urbani / Binding of serum 2 to looped/cyclic peptides of protein N of SARS-CoV Urbani / Binding of serum 6 to looped/cyclic peptides of protein N of SARS-CoV Urbani / Binding of serum 37 to looped/cyclic peptides of protein N of SARS-CoV Urbani / Binding of serum 62 to looped/cyclic peptides of protein N of SARS-CoV Urbani / Binding of serum London to looped/cyclic peptides of protein N of SARS-CoV Urbani / Binding of serum SARS-green to looped/cyclic peptides of protein N of SARS-CoV Urbani: unit not given here
[3] = system: control sera (pooled serum of ten healthy LUMC hospital workers; commercial negative donor pooled serum from the Dutch bloodbank); assay type: binding, human; set-up: Binding of Control serum LUMC to linear peptides / Binding of Control serum Blood-bank to linear peptides / Binding of Control serum LUMC to looped peptides / Binding of Control Serum Blood-Bank to Looped peptides / Binding of Control serum LUMC to linear peptides of the protein M of SARS-CoV Urbani / Binding of Control serum Blood-bank to linear peptides of the protein M of SARS-CoV Urbani / Binding of Control serum LUMC to looped peptides of the protein M of SARS-CoV Urbani / Binding of Control Serum Blood-Bank to Looped peptides of the protein M of SARS-CoV Urbani: unit not given here

YSNRNRFLYIIKLVF
Rabbit serum linear peptides [1]: 0.4
Rabbit serum looped peptides [1]: 0.5
Binding of serum 1a to linear peptides of protein M of SARS-CoV Urbani [2]: 0.7
Binding of serum 1b to linear peptides of protein M of SARS-CoV Urbani [2]: 0.5
Binding of serum 2 to linear peptides of protein M of SARS-CoV Urbani [2]: 0.6
Binding of serum 6 to linear peptides of protein M of SARS-CoV Urbani [2]: 0.3
Binding of serum 37 to linear peptides of protein M of SARS-CoV Urbani [2]: 0.7
Binding of serum 62 to linear peptides of protein M of SARS-CoV Urbani [2]: 0.7
Binding of serum London to linear peptides of protein M of SARS-CoV Urbani [2]: 0.3
Binding of serum SARS-green to linear peptides of protein M of SARS-CoV Urbani [2]: 0.3
Binding of serum SARS-yellow to linear peptides of protein M of SARS-CoV Urbani [2]: 0.1
Recognition of the peptide by sera of SARS-CoV infected individuals, and form (linear, looped/cyclic) in which it is recognized [2]: recognized in looped/cyclic form
Binding of Control Serum Blood-Bank to Looped peptides of the protein M of SARS-CoV Urbani [3]: 0.6
Binding of Control serum Blood-bank to linear peptides of the protein M of SARS-CoV Urbani [3]: 0.7
Binding of Control serum LUMC to linear peptides of the protein M of SARS-CoV Urbani [3]: 0.4
Binding of Control serum LUMC to looped peptides of the protein M of SARS-CoV Urbani [3]: 0.9

SELVIGAVIIRGHLR
Rabbit serum linear peptides [1]: 0.2
Rabbit serum looped peptides [1]: 0.2
Binding of serum 1a to linear peptides of protein M of SARS-CoV Urbani [2]: 0.7
Binding of serum 1a to looped/cyclic peptides of protein M of SARS-CoV Urbani [2]: 0.8
Binding of serum 1b to linear peptides of protein M of SARS-CoV Urbani [2]: 0.6
Binding of serum 1b to looped/cyclic peptides of protein M of SARS-CoV Urbani [2]: 0.7
Binding of serum 2 to linear peptides of protein M of SARS-CoV Urbani [2]: 0.6
Binding of serum 2 to looped/cyclic peptides of protein M of SARS-CoV Urbani [2]: 0.8
Binding of serum 6 to linear peptides of protein M of SARS-CoV Urbani [2]: 0.7
Binding of serum 6 to looped/cyclic peptides of protein M of SARS-CoV Urbani [2]: 0.6
Binding of serum 37 to linear peptides of protein M of SARS-CoV Urbani [2]: 0.5
Binding of serum 37 to looped/cyclic peptides of protein M of SARS-CoV Urbani [2]: 0.8
Binding of serum 62 to linear peptides of protein M of SARS-CoV Urbani [2]: 0.4
Binding of serum 62 to looped/cyclic peptides of protein M of SARS-CoV Urbani [2]: 0.8
Binding of serum London to linear peptides of protein M of SARS-CoV Urbani [2]: 0.4
Binding of serum London to looped/cyclic peptides of protein M of SARS-CoV Urbani [2]: 0.2
Binding of serum SARS-green to linear peptides of protein M of SARS-CoV Urbani [2]: 0.5
Binding of serum SARS-green to looped/cyclic peptides of protein M of SARS-CoV Urbani [2]: 0.3
Binding of serum SARS-yellow to linear peptides of protein M of SARS-CoV Urbani [2]: 0.3
Binding of serum SARS-yellow to looped/cyclic peptides of protein M of SARS-CoV Urbani [2]: 0.9
Binding of Control Serum Blood-Bank to Looped peptides of the protein M of SARS-CoV Urbani [3]: 0.6
Binding of Control serum Blood-bank to linear peptides of the protein M of SARS-CoV Urbani [3]: 0.8
Binding of Control serum LUMC to linear peptides of the protein M of SARS-CoV Urbani [3]: 0.9
Binding of Control serum LUMC to looped peptides of the protein M of SARS-CoV Urbani [3]: 0.6

TCTSTHFAFACADGT
Rabbit serum linear peptides [1]: 0.5
Rabbit serum looped peptides [1]: 0.7
Binding of serum 1a to linear peptides of protein X4 of SARS-CoV Urbani [2]: 0.8
Binding of serum 1a to looped/cyclic peptides of protein X4 of SARS-CoV Urbani [2]: 0.8
Binding of serum 1b to linear peptides of protein X4 of SARS-CoV Urbani [2]: 0.7
Binding of serum 1b to looped/cyclic peptides of protein X4 of SARS-CoV Urbani [2]: 0.6
Binding of serum 2 to linear peptides of protein X4 of SARS-CoV Urbani [2]: 0.5
Binding of serum 2 to looped/cyclic peptides of protein X4 of SARS-CoV Urbani [2]: 0.8
Binding of serum 6 to linear peptides of protein X4 of SARS-CoV Urbani [2]: 0.7
Binding of serum 6 to looped/cyclic peptides of protein X4 of SARS-CoV Urbani [2]: 0.6
Binding of serum 37 to linear peptides of protein X4 of SARS-CoV Urbani [2]: 0.7
Binding of serum 37 to looped/cyclic peptides of protein X4 of SARS-CoV Urbani [2]: 0.7
Binding of serum 62 to linear peptides of protein X4 of SARS-CoV Urbani [2]: 0.9
Binding of serum 62 to looped/cyclic peptides of protein X4 of SARS-CoV Urbani [2]: 0.8
Binding of serum London to linear peptides of protein X4 of SARS-CoV Urbani [2]: 0.8
Binding of serum London to looped/cyclic peptides of protein X4 of SARS-CoV Urbani [2]: 0.3
Binding of serum SARS-green to linear peptides of protein X4 of SARS-CoV Urbani [2]: 0.6
Binding of serum SARS-green to looped/cyclic peptides of protein X4 of SARS-CoV Urbani [2]: 0.5
Binding of serum SARS-yellow to linear peptides of protein X4 of SARS-CoV Urbani [2]: 0.6
Binding of serum SARS-yellow to looped/cyclic peptides of protein X4 of SARS-CoV Urbani [2]: 0.8
Binding of Control Serum Blood-Bank to Looped peptides [3]: 0.7
Binding of Control serum Blood-bank to linear peptides [3]: 0.8
Binding of Control serum LUMC to linear peptides [3]: 0.9
Binding of Control serum LUMC to looped peptides [3]: 0.8

Source: patent US20070128217A1 (priority 2003, published 2007)
